Measured values from paper PMC3928794 (Chemistry & biodiversity, 2013).
Where two headings read alike, the source gives them in different places.

Columns and labels:
Format in all cases: cell-based
[1] = test system: A2058 melanoma cell line; assay: Antiproliferative bioassay, A2058 melanoma cell line
[2] = test system: H522 lung cancer cell line; assay: Antiproliferative bioassay, H522 lung cancer cell line
[3] = test system: A2780 human ovarian cancer cell line; assay: Antiproliferative bioassay, A2780 ovarian cancer cell line; conditions: for IC50: read-out: IC50 (μM) A2780, A2780 ovarian cancer cells, mean of three replicates
[4] = read-out: IC50 (μM) H522, H522 lung cancer cells

Compound | IC50 ([1]; read-out: IC50 (μM) A2058, A2058 melanoma cells) | IC50 [2, 4] | IC50 [3] | inhibition of the proliferation of A2780 cells (in words) [3] | IC50 ([1]; Homo sapiens, A2058, read-out: IC50 (μM) A2058) | IC50 ([2]; Homo sapiens, NCI-H522, read-out: IC50 (μM) H522)
oleanolic acid-3-O-β-D-glucopyranosyl- (1→3)-β-D-glucopyranoside [Compound 1] | 7.63 µM | 7.32 µM | 2.2 ± 0.2 µM |  |  | 
oleanolic acid-3-O-β-D-glucopyranosyl-(1→3)-(2″-O-acetyl)-β-D-glucopyranoside [Compound 2] |  | > 10 µM | 1.7 ± 0.1 µM | selectively inhibit the proliferation of A2780 ovarian cancer cells |  | 
CC(=O)OC[C@H]1O[C@@H](O[C@H]2CC[C@]3(C)[C@H]4CC=C5[C@@H]6CC(C)(C)CC[C@]6(C(=O)O)CC[C@@]5(C)[C@]4(C)CC[C@H]3C2(C)C)[C@H](O)[C@@H](O[C@@H]2O[C@H](CO)[C@@H](O)[C@H](O)[C@H]2O)[C@@H]1O [Compound 3, oleanolic acid-3-O-β-D-glucopyranosyl-(1→3)-(6″-O-acetyl)-β-D-glucopyranoside] |  | > 10 µM | 1.2 ± 0.3 µM | selectively inhibit the proliferation of A2780 ovarian cancer cells |  | 
CC[C@]1(O)C[C@@H]2CN(CCc3c([nH]c4ccccc34)[C@@](C(=O)OC)(c3cc4c(cc3OC)N(C)[C@H]3[C@@](O)(C(=O)OC)[C@H](OC(C)=O)[C@]5(CC)C=CCN6CC[C@]43[C@@H]65)C2)C1 [Vinblastine, reference compound] |  |  |  |  | 0.004 µM | 0.009 µM
